# Laboratory results as given in patent publication US20110009420A1, “Histamine H3 Receptor Ligands” (HIGH POINT PHARMACEUTICALS, LLC, priority 2008, published 2011).
# Structures can show the parent of a compound that is named as a salt. Where two headings read alike, the source gives them in different places.
# Columns and labels:
# [1] = target: T1, human histamine H3 receptor (Homo sapiens, UniProt Q9Y5N1); assay: functional [35S]GTPγS binding assay (antagonist potency, inhibition of RAMHA-stimulated binding); type: biochemical; details: for [35S]GTPγS binding Ki(nM): functional Ki from full dose-response IC50 by Cheng-Prusoff, 10 nM RAMHA, re-synthesized compounds
# T1 construct: expressed in transfected cells
# Experimental: CHO-cells, stably expressing the human histamine H3 receptor, were harvested and membranes were prepared by threefold homogenization in a HEPES buffer (20 mM HEPES, 0.1-10 mM EDTA; pH 7.4). […] The hits were subsequently tested in full dose-response curves for functional IC50 determinations. After 2 h incubation at RT with gentle shaking of the plate, the plate was centrifuged at 370 RCF for 10 min and subsequently the radioactivity was counted in a Packard TopCount-NXT.
# The IC50 values were calculated by non-linear regression analysis using GraphPad Prism.
# [2] = read-out: [35S]GTPγS binding Ki
# T1 sequence (Q9Y5N1 whole entry): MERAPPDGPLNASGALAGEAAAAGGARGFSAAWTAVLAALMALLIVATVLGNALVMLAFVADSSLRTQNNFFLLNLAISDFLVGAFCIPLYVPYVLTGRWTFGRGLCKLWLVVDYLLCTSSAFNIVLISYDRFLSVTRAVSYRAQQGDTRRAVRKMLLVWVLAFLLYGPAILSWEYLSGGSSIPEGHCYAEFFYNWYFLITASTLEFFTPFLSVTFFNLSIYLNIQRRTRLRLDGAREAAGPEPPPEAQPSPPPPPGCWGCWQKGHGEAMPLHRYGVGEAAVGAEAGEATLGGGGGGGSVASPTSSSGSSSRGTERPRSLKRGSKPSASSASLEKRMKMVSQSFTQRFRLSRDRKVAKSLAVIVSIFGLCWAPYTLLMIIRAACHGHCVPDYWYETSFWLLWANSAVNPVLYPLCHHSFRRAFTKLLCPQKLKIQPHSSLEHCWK
melting point [°C],inhibition at 3.5 µM [1] [%],"Ki [1, 2] [nM]",SMILES,also measured
265 to 267,–,–,O=C(c1cc2ccccc2s1)N1CCN(CCCN2CCCCC2)CC1 (as salt: hydrochloride) (hydrate or solvate) [Compound A11B12],–
253 to 255,–,–,"O=C(c1cc2ccccc2o1)N1CCN(CCCN2CCCCC2)CC1 (as salt: hydrochloride) (hydrate or solvate) [Compound A12B12, Benzofuran-2-yl-(4-(3-(piperidin-1-yl)propyl)piperazin-1-yl)methanone, dihydrochloride]",–
255 to 257,–,–,COc1ccc2oc(C(=O)N3CCN(CCCN4CCCCC4)CC3)cc2c1 (as salt: hydrochloride) (hydrate or solvate) [Compound A13B12],–
263 to 265,–,–,"O=C(CC1c2ccccc2-c2ccccc21)N1CCN(CCCN2CCCCC2)CC1 (as salt: hydrochloride) (hydrate or solvate) [Compound A18B12, 2-(9H-Fluoren-9-yl)-1-(4-(3-(piperidin-1-yl)propyl)piperazin-1-yl)ethanone, dihydrochloride]",–
274 to 276,–,–,O=C(c1cccc(Oc2ccccc2)c1)N1CCN(CCCN2CCCCC2)CC1 (as salt: hydrochloride) [Compound A21B12],–
–,57,35,O=C(c1cc2ccccc2s1)N1CCN(CCCN2CCCCC2)CC1 [Compound A11B12],–
–,70,19,"O=C(c1cc2ccccc2o1)N1CCN(CCCN2CCCCC2)CC1 [Compound A12B12, Benzofuran-2-yl-(4-(3-(piperidin-1-yl)propyl)piperazin-1-yl)methanone, dihydrochloride]",–
–,60,16,COc1ccc2oc(C(=O)N3CCN(CCCN4CCCCC4)CC3)cc2c1 [Compound A13B12],–
–,74,7.4,"O=C(CC1c2ccccc2-c2ccccc21)N1CCN(CCCN2CCCCC2)CC1 [Compound A18B12, 2-(9H-Fluoren-9-yl)-1-(4-(3-(piperidin-1-yl)propyl)piperazin-1-yl)ethanone, dihydrochloride]",[35S]GTPγS binding Ki(nM) [1]: low nanomolar range
–,62,23,O=C(c1cccc(Oc2ccccc2)c1)N1CCN(CCCN2CCCCC2)CC1 [Compound A21B12],–

SMILES,melting point [°C],inhibition at 3.5 µM [1] [%],"Ki [1, 2] [nM]",also measured
O=C(Cc1ccc(-c2ccccc2)cc1)N1CCN(CCCN2CCCCC2)CC1 (as salt: hydrochloride) (hydrate or solvate) [Compound A15B12],274 to 276,–,–,–
O=C(Cc1c[nH]c2ccccc12)N1CCN(CCCN2CCCCC2)CC1 (as salt: hydrochloride) [Compound A14B12],256 to 258,–,–,–
O=C(Cc1c[nH]c2ccccc12)N1CCN(CCCN2CCCCC2)CC1 [Compound A14B12],–,73,–,Ki [1]: 10 nM; [35S]GTPγS binding Ki(nM) [1]: low nanomolar range
O=C(Cc1ccc(-c2ccccc2)cc1)N1CCN(CCCN2CCCCC2)CC1 [Compound A15B12],–,56,–,Ki [1]: 51 nM
